These results are taken from US10221139B2, “Inhibitors of histone demethylases” (Gilead Sciences, Inc., priority 2012, dated 2019).

By IC50 is commonly meant the concentration that inhibits the measured activity by half.

What all share (format): biochemical
Assay [1] addresses T1, GASC1 (KDM4C, JMJD2C) (Homo sapiens, UniProt Q9H3R0).
T1 construct: 1-349; host or cells: E. coli
T1 sequence (Q9H3R0 1-349): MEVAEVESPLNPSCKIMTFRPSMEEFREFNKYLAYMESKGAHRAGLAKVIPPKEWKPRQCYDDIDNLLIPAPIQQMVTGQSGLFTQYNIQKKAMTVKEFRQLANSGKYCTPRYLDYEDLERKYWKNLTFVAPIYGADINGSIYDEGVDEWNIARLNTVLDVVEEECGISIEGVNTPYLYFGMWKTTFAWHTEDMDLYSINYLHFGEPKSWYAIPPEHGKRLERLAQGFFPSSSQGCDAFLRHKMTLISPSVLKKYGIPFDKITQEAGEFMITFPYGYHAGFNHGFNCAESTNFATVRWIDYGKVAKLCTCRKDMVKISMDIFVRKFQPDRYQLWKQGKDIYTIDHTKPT
The experiment in a line: Histone lysine demethylase AlphaLISA assay, GASC1. As to conditions: substrate BK9M3. The method, boiled down:
(§1)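 IC50 values come from an AlphaLISA signal: acceptor beads incubated 60 min in the dark, then streptavidin donor beads, both at room temperature. Beforehand, enzyme and compound were preincubated 10 min and the substrate reaction ran at room temperature.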

Assay [2] deals with T2, FBXL10 (KDM2B) (Homo sapiens, UniProt Q8NHM5).
T2 construct: 1-650; purchased BPS, Bioscience, US; host or cells: Bac (baculovirus)
T2 sequence (Q8NHM5 1-650): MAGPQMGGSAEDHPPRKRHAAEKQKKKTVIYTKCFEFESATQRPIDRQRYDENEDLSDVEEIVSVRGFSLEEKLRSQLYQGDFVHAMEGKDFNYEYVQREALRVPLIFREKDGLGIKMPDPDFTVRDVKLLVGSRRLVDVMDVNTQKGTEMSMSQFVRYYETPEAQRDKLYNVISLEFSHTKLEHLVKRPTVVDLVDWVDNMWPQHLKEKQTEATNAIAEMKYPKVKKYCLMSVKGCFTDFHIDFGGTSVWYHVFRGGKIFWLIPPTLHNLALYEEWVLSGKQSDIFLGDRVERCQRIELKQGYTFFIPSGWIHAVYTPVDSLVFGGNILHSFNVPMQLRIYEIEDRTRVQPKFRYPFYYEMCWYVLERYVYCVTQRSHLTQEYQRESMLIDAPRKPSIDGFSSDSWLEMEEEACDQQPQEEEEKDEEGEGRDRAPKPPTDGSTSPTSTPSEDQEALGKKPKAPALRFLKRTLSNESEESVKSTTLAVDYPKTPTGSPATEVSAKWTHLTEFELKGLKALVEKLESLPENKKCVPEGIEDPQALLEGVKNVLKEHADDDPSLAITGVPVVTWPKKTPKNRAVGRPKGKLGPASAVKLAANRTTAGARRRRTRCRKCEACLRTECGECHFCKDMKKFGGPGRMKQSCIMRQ
Nature of the assay: Histone lysine demethylase AlphaLISA assay, FBXL10. Particulars: substrate BH3K36M2. The method, then:
Example 2: Histone Lysine Demethylase AlphaLISA Assays for IC50 Value Determination
Assays are performed analogously to the protocol described by Perkin Elmer (Roy et al. Perkin Elmer Technical Note: AlphaLISA #12, April 2011).
Enzymes are dissolved in enzyme buffer and incubated for 10 min before 5 μL is added to 5 μL 3% DMSO solutions of compounds in enzyme buffer. Incubated for another 10 minutes, before 5 μL substrate solution is added and the reaction mixture is incubated at room temperature for the given period. 10 μL acceptor beads, suspended at given dilutions in Epigenetic Buffer (Perkin Elmer AL008) from stock, are added and the suspension is incubated 60 minutes in the dark at room temperature, before 10 μL suspension (at the given dilutions in Epigenetic Buffer) of streptavidin donor beads (Perkin Elmer 6760002) in Epigenetic Buffer is added. After incubation at room temperature in the dark the plates are read. Reaction conditions are seen in Table 2b.
(In general: In Alpha technology, singlet oxygen from a donor bead excites a nearby acceptor bead.)

For assay [3], the target named is T3, PLU1 (KDM5B) (Homo sapiens, UniProt Q9UGL1).
T3 construct: 1-809; host or cells: E. coli
T3 sequence (Q9UGL1 1-809): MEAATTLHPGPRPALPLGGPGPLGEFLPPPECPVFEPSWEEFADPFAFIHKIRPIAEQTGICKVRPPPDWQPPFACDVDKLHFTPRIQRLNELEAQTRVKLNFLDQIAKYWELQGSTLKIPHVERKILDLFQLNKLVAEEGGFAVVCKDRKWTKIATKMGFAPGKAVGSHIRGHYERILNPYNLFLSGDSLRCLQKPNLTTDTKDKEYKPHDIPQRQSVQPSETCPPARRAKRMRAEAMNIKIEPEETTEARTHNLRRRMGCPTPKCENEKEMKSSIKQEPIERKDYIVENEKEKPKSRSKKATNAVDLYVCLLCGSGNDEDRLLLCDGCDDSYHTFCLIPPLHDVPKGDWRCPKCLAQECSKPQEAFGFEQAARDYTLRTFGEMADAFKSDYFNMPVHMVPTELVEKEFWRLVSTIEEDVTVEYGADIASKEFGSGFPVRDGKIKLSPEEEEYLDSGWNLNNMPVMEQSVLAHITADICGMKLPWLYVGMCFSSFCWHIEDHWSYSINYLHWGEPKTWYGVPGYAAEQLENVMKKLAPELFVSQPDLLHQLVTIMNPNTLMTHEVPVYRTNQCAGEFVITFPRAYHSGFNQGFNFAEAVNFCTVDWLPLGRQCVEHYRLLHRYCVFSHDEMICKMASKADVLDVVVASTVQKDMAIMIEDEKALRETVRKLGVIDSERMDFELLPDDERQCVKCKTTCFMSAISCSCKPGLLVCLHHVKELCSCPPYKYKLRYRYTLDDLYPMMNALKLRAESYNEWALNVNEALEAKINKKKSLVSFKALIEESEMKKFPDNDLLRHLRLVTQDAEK
The experiment in a line: Histone lysine demethylase AlphaLISA assay, PLU1. As to conditions: substrate H3K4M3B. An outline of the steps:
as §1

Assay [4] deals with T4, UTX (KDM6A) (Homo sapiens, UniProt O15550).
T4 construct: 919-1401; host or cells: E. coli
The experiment in a line: Histone lysine demethylase AlphaLISA assay, UTX. As to conditions: substrate BK27M3. The method, boiled down: as §1

T4 sequence (O15550 919-1401): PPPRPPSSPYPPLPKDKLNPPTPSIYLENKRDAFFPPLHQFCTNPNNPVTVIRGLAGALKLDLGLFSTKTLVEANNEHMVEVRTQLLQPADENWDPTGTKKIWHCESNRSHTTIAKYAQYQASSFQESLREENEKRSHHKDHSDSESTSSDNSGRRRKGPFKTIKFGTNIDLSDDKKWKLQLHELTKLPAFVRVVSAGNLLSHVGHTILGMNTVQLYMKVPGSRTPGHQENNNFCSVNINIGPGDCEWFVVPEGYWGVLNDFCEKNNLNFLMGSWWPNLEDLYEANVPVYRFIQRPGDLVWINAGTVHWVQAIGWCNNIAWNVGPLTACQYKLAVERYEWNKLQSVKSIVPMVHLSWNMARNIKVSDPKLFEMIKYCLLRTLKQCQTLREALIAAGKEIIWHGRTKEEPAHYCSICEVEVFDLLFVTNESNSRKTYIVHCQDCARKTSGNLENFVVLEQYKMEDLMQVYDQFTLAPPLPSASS

For the compound `CCN(CCN(C)C)C(=O)CNCc1cc(C(=O)N2CCOC2=O)ccn1` [#72, N-[2-(dimethylamino)ethyl]-N-ethyl-2-({[4-(2-oxo-1,3-oxazolidine-3-carbonyl)pyridin-2-yl]methyl}amino)acetamide], the IC50 in assay [1] is less than 100 nM; in assay [2], no less than 1000 nM; in assay [3] it was less than 100 nM.
For the compound `CCCCCCCCCCCCCCCC(=O)OCC(COC(=O)CCCCCCCCCCCCCCC)OC(=O)c1ccnc(CNCC(=O)N(CC)CCN(C)C)c1` [#68, 2-(2-{[({[2-(dimethylamino)ethyl](ethyl)carbamoyl}methyl)amino]methyl}pyridine-4-carbonyloxy)-3-(hexadecanoyloxy)propyl hexadecanoate], the IC50 in assay [1] was 100 to 1000 nM; in assay [2], no less than 1000 nM; in assay [4], less than 100 nM; in assay [3], 100 to 1000 nM.
In the case of `CCCN(CC(=O)N1CCCCC1)Cc1cc(C(=O)O)ccn1` [#87, 2-({[2-oxo-2-(piperidin-1-yl)ethyl](propyl)amino}methyl)pyridine-4-carboxylic acid], the IC50 was no less than 1000 nM in assay [1], 100 to 1000 nM in assay [2], less than 100 nM in assay [4] and 100 to 1000 nM in assay [3].
Consider `CCN(CC(=O)N1CCCCC1)Cc1cc(C(=O)O)ccn1` [#81, 2-({ethyl[2-oxo-2-(piperidin-1-yl)ethyl]amino}methyl)pyridine-4-carboxylic acid], for which the IC50 in assay [1], in assay [2] and in assay [3] was 100 to 1000 nM in each case.
As to `CCN(CCN(C)C)C(=O)CNCc1cc(C(=O)OCC(F)F)ccn1` [#91, 2,2-difluoroethyl 2-{[({[2-(dimethylamino)ethyl](ethyl)carbamoyl}methyl)amino]methyl}pyridine-4-carboxylate], the IC50 in assay [1] is less than 100 nM; in assay [2] it was no less than 1000 nM; in assay [4] it was less than 100 nM; in assay [3], less than 100 nM.
Take `CCN(CCN(C)C)C(=O)CNCc1cc(C(=O)OCC(F)(F)F)ccn1` [#80, 2,2,2-trifluoroethyl 2-{[({[2-(dimethylamino)ethyl](ethyl)carbamoyl}methyl)amino]methyl}pyridine-4-carboxylate]: the results for the half-inhibitory concentration (IC50) in assay [1], in assay [2] and in assay [3] were less than 100 nM, no less than 1000 nM and less than 100 nM, respectively.
As to `CC(C)CN(CC(=O)N1CCCCC1)Cc1cc(C(=O)O)ccn1` [#86, 2-{[(2-methylpropyl)[2-oxo-2-(piperidin-1-yl)ethyl]amino]methyl}pyridine-4-carboxylic acid], the half-inhibitory concentration (IC50) in assay [1] is no less than 1000 nM; in assay [2], 100 to 1000 nM; in assay [4], less than 100 nM; in assay [3], no less than 1000 nM.
Regarding `CCN(CCN(C)C)C(=O)CNCc1cc(C(=O)OC)ccn1` [#70, methyl 2-{[({[2-(dimethylamino)ethyl](ethyl)carbamoyl}methyl)amino]methyl}pyridine-4-carboxylate], the IC50 in assay [1] is less than 100 nM; in assay [2], no less than 1000 nM; in assay [4] it was less than 100 nM; in assay [3] it was less than 100 nM.
For `CC(C)N(CC(=O)N1CCCCC1)Cc1cc(C(=O)O)ccn1` [#88, 2-({[2-oxo-2-(piperidin-1-yl)ethyl](propan-2-yl)amino}methyl)pyridine-4-carboxylic acid], the IC50 in assay [1] is no less than 1000 nM; in assay [2], 100 to 1000 nM; in assay [4] it was less than 100 nM; in assay [3], no less than 1000 nM.
For the compound `O=C(O)c1ccnc(CN2CCC2)c1` [#79, 2-(azetidin-1-ylmethyl)pyridine-4-carboxylic acid], the IC50 in assay [1], in assay [2] and in assay [3] was no less than 1000 nM each time.
With `CC(C)C[C@H](NCc1cc(C(=O)O)ccn1)C(=O)NC(C)(C)C` [#92, 2-({[(1S)-1-(tert-butylcarbamoyl)-3-methylbutyl]amino}methyl)pyridine-4-carboxylic acid], the IC50 in assay [1] was no less than 1000 nM; in assay [2] it was 100 to 1000 nM; in assay [4], 100 to 1000 nM; in assay [3], no less than 1000 nM.
For `CCN(CCN(C)C)C(=O)CNCc1cc(C(=O)N(C)S(C)(=O)=O)ccn1` [#71, 2-{[({[2-(dimethylamino)ethyl](ethyl)carbamoyl}methyl)amino]methyl}-N-methanesulfonyl-N-methylpyridine-4-carboxamide], the IC50 is less than 100 nM in assay [1], 100 to 1000 nM in assay [2], no less than 1000 nM in assay [4] and less than 100 nM in assay [3].
Take `CCN(CCN(C)C)C(=O)CNCc1cc(C(=O)OCCF)ccn1` [#90, 2-fluoroethyl 2-{[({[2-(dimethylamino)ethyl](ethyl)carbamoyl}methyl)amino]methyl}pyridine-4-carboxylate]: the IC50 is 100 to 1000 nM in assay [1], no less than 1000 nM in assay [2], less than 100 nM in assay [4] and less than 100 nM in assay [3].
Turning to `CCCCN(CC(=O)N1CCCCC1)Cc1cc(C(=O)O)ccn1` [#82, 2-({butyl[2-oxo-2-(piperidin-1-yl)ethyl]amino}methyl)pyridine-4-carboxylic acid], the IC50 in assay [1] was no less than 1000 nM; in assay [2], 100 to 1000 nM; in assay [3] it was no less than 1000 nM.
For `O=C(O)c1ccnc(CN(CC(=O)N2CCCCC2)Cc2ccccc2)c1` [#83, 2-({benzyl[2-oxo-2-(piperidin-1-yl)ethyl]amino}methyl)pyridine-4-carboxylic acid], the results for the IC50 in assay [1], in assay [2] and in assay [3] were no less than 1000 nM, 100 to 1000 nM and no less than 1000 nM, respectively.
